Entries after “also recorded” stand apart in the source; their conditions may differ.
Experiments:
[1] = system: Abeta oligomer-induced acceleration of exocytosis (membrane trafficking) in primary neurons; test: Exocytosis / MTT membrane trafficking assay in mature primary neurons treated with Abeta oligomers; assay type: cell-based, Sprague-Dawley rat; conditions: for potency relative to the parent CT0093 (in words) / efficacy relative to the parent CT0093 (in words): 21DIV primary neurons; for block of Abeta oligomer effects on membrane trafficking (in words): primary neurons in vitro
Experimental: Primary neurons from E18 Sprague-Dawley rat embryos are plated at optimized concentrations in 384 well plates in NB media (Invitrogen). Neurons are maintained in cultures for 3 weeks, with twice weekly feeding of NB media with N2 supplement (Invitrogen). A test compound is added to cells, followed by addition of Vehicle or Abeta oligomer preparations (1.5 μM), and incubated for 1 to 24 hr. at 37° C. in 5% CO2. MTT reagent (3-(4,5-dimethylthizaol-2-yl)-2,5diphenyl tetrazolium bromide) (Roche Molecular Biochemicals) is reconstituted in phosphate buffered saline to 5 mg/mL. 10 μL of MTT labeling reagent is added to each well and incubated at 37° C. for 1 h, then imaged.
Each assay plate is formatted so that compounds are tested with and without Abeta on each plate.
Similar procedures for exocytosis assays/MTT assays can be found in the literature. See e.g., Liu Y, et. al., Detecting bioactive amyloid beta peptide species in Alzheimer's disease. J. Neurochem. 2004 November; 91(3):648-56; Liu Y, and Schubert D. “Cytotoxic amyloid peptides inhibit cellular 3-(4,5-dimethylthiazol-2-yl)-2,5-diphenyltetrazolium bromide (MTT) reduction by enhancing MTT formazan exocytosis.” J. Neurochem. 1997 December; 69(6):2285-93; and Liu Y, and Schubert D. “Treating Alzheimer's disease by inactivating bioactive amyloid beta peptide” Curr. Alzheimer Res. 2006 April; 3(2):129-35. Abeta 1-42 oligomers made according to published methods [See e.g. Dahlgren et al., “Oligomeric and fibrillar species of amyloid-beta peptides differentially affect neuronal viability” J Biol. Chem. 2002 Aug. 30; 277(35):32046-53. Epub 2002 Jun. 10. LeVine H 3rd. “Alzheimer's beta-peptide oligomer formation at physiologic concentrations” Anal Biochem. 2004 Dec. 1; 335(1):81-90; Shrestha et. al, “Amyloid beta peptide adversely affects spine number and motility in hippocampal neurons” Mol Cell Neurosci. 2006 November; 33(3):274-82. Epub 2006 Sep. 8; Puzzo et al., “Amyloid-beta peptide inhibits activation of the nitric oxide/cGMP/cAMP-responsive element-binding protein pathway during hippocampal synaptic plasticity” J. Neurosci. 2005 Jul. 20; 25(29):6887-97; Barghorn et al., “Globular amyloid beta-peptide oligomer—a homogenous and stable neuropathological protein in Alzheimer's disease” J. Neurochem. 2005 November; 95(3):834-47. Epub 2005 Aug. 31; Johansson et al., Physiochemical characterization of the Alzheimer's disease-related peptides A beta 1-42 Arctic and A beta 1-42 wt. […] Negative controls include vehicle-treated neurons as well as neurons treated with 28 μM concentrations of memantine. […] These controls, on each plate, serve as normalization tools to calibrate assay performance on a plate-by-plate basis.
Primary neuronal cultures are prepared as follows: Optimal cell density of primary neuronal cultures is determined based on cellular response to Abeta oligomers using the exocytosis assay as a readout, and immunohistochemical analysis of the relative proportion of glia to neurons in the cultures. Cultures are monitored on a weekly basis with immunohistochemistry and image processing-based quantification to monitor the percentage of the cultures that are neurons vs. glia (Glial cells). Cultures containing more than 20% glia (positive for GFAP) vs. neurons (staining positively with antibodies directed against MAP2) at the screening age of 21 days in vitro (21 DIV) are rejected.
Toxicity is monitored in each image-based assay via quantification of nuclear morphology visualized with the DNA binding dye DAPI (Invitrogen). Nuclei that are fragmented are considered to be in late stage apoptosis (Majno and Joris '95). Peptide lots producing unusual peptide size ranges or significant toxicity at a standard 1.5 uM concentration on neurons are rejected.

[2] = in vivo; conditions: rat, 1 mg/kg
Experimental: PK studies are performed at CEREP Inc. of Redmond Wash., according to their standard protocols: The plasma samples were processed using acetonitrile precipitation and analyzed by HPLC-MS or HPLC-MS/MS. Peak areas were recorded, and the concentrations of the test compound in the unknown plasma samples were determined using the respective calibration curve. The reportable linear range of the assay was determined, along with the lower limit of quantitation (LLQ).
Pharmacokinetic studies were performed according to the following protocols: The plasma samples were processed using acetonitrile precipitation and analyzed by HPLC-MS or HPLC-MS/MS. Peak areas were recorded, and the concentrations of the test compound in the unknown plasma samples were determined using the respective calibration curve. The reportable linear range of the assay was determined, along with the lower limit of quantitation (LLQ).

[3] = system: Abeta oligomer effects on memory; test: Fear conditioning assay (contextual memory, Abeta oligomer administration); assay type: in vivo, mice
Experimental: CT0109 and CT0093 were tested in an animal model of a memory-dependent behavioral task known as fear conditioning. The study protocol was designed based on published protocols (See e.g. Puzzo D, Privitera L, Leznik E, Fa M, Staniszewski A, Palmeri A, Arancio O. Picomolar amyloid-beta positively modulates synaptic plasticity and memory in hippocampus. J Neurosci. 2008 Dec. 31; 28(53):14537-45.). The formation of contextual memories is dependent upon the integrity of medial temporal lobe structures such as the hippocampus. In this assay mice were trained to remember that a particular salient context (conditioned stimulus; CS) is associated with an aversive event, in this case a mild foot shock (the unconditioned stimulus, US). Animals that show good learning will express an increase in freezing behavior when placed back into the same context. This freezing is absent in a novel context. Increased freezing in the context indicates strong hippocampal-dependent memory formation in animals. Memory tested in Fear Conditioning is sensitive to elevations of soluble Aβ. […] The fear condition model for memory was performed as described herein.

[4] = system: 9 month old male Swe/Ldn mice; test: Behavioral efficacy in transgenic Swe/Ldn mice (osmotic minipump); assay type: in vivo; conditions: transgenic mouse model of AD
Experimental: CT0093 was tested for its ability to reverse deficits in 9 month old male Swe/Ldn mice in a pilot study at 1 and 10 mg/kg/day via the osmotic minipump method.
Subcutaneous administration of 10 mg/kg/day of CT0093 (shown in gray squares and solid gray line and solid bar) achieved brain concentrations of 540 nM (FIG. 9).

[5] = system: Abeta oligomer-induced synapse loss; test: Abeta oligomer-induced synapse loss in vitro; assay type: cell-based

SMILES: Cc1ccc(C(C)CC(CC(C)(C)O)NCC(C)C)cc1 (stereo not drawn) [CT1297, 4-(isobutylamino)-2-methyl-6-p-tolylheptan-2-ol]
- potency relative to the parent CT0093 (in words) [1]: significantly less potent than the parent CT0093
- fold less potent than the parent CT0093 ([1]; primary screening assay): ~2 fold
- clearance [2]: 101 ± 12 mL/min/kg
- half-life [2]: 2.68 ± 1.62 h

SMILES: COc1cc(CCC(C)NCc2ccc(C(F)(F)F)cc2)ccc1O (stereo not drawn) [CT0109, 4-(3-(4-(trifluoromethyl)benzylamino)butyl)-2-methoxyphenol]
- EC50 ([1]; Rattus norvegicus, Primary neuron, MTT assay, primary neurons, read-out: EC50, block of Abeta oligomer-induced acceleration of exocytosis / oligomer effects on membrane trafficking): 7 µM
- block of Abeta oligomer effects on membrane trafficking (in words) [1]: effective in both prevention; also recorded: effective at stopping Abeta oligomer mediated effects on membrane trafficking
- pharmacological competition with Abeta oligomers ([1]; synthetic and human Alzheimer's patient-derived oligomers): exhibit pharmacological competition with both synthetic (A, B) and human Alzheimer's patient-derived (C, D) oligomers
- block of Abeta oligomer effects on memory ([3]; 2 pmol dose, given prior to Abeta oligomers (200 nM), mice): blocked oligomer effects on memory; also recorded: completely blocked the effect of Abeta on memory
- adverse behavioral changes ([3]; any dose): No adverse behavioral changes were observed
- effect of compound alone on memory ([3]; without Abeta): No effect of compound alone was observed
- improvement of memory / cognitive performance of transgenic mice [4]: capable of improving cognitive performance in the transgenic model of AD; also recorded: improve memory deficits in a transgenic mouse model of Alzheimer's disease
- block of Abeta oligomer-induced synapse loss [5]: inhibition of processed product of amyloid precursor protein-mediated synapse loss

SMILES: C[C@]12N[C@H](Cc3ccccc31)c1ccccc12 [MK-801, reference compound]
- block of Abeta oligomer effects on membrane trafficking (in words) [1]: none were active

SMILES: CC1=CC=C(C(C)CC(CC(C)(C)O)NCC(C)C)CC1 (stereo not drawn) [CT1296, 4-(isobutylamino)-2-methyl-6-(4-methylcyclohexa-1,3-dienyl)heptan-2-ol]
- efficacy relative to the parent CT0093 (in words) [1]: somewhat less efficacious
- potency relative to the parent CT0093 (in words) [1]: maintained the potency of the parent compound
- efficacy relative to the parent CT0093 (in words) ([1]; listed as CT01296): slightly less efficacious
- clearance [2]: 120 ± 13 mL/min/kg
- half-life [2]: 1.15 ± 0.0833 h

SMILES: C[N+](C)(C)CCCCCC[N+](C)(C)C [hexamethonium bromide, reference compound]
- block of Abeta oligomer effects on membrane trafficking (in words) [1]: none were active

SMILES: CC12CC3CC(C)(C1)CC(N)(C3)C2 [memantine, reference compound]
- inhibition at 28 µM ([1]; Rattus norvegicus, Primary neuron, 28 μM memantine, plate control, read-out: inhibition of oligomer effects): 50%

SMILES: O[C@H]1[C@H](O)[C@@H](O)[C@H](O)[C@@H](O)[C@@H]1O [scyllo-inositol (AZD-103), scyllo-inositol, reference compound]
- block of Abeta oligomer effects on membrane trafficking (in words) [1]: none were active
